The values that follow come from US9409939B2, “Quantification method for remaining liver function and novel liver receptor imaging agent” (INSTITUTE OF NUCLEAR ENERGY RESEARCH ATOMIC ENERGY COUNCIL, …, priority 2009, dated 2016).

The test system of data set [1] is normal rat cells (Clone 9). Nature of the data set: MTT cell toxicity test, Clone 9. Type of data set: cell-based. As to conditions: Clone 9, concentration 10^3 times of 0.01 μM, 24 hr, 48 hr. The protocol:
(§1) MTT, i.e. 3-(4,5-cimethyl-thiazol-2-yl)-2,5-diphenyl tetrazolium bromide, can be metabolized by succinate dehydrogenase of cell mitochondria into blue MTT formazan, and thus is widely used to detect cell viability. The experimental method includes: adding 0, 0.001 μM, 0.01 μM, 0.1 μM, 1 μM, and 10 μM hexa-lactoside into 1×10^6 normal rat cells (Clone 9) and normal mouse cells (FL83B), respectively; after culturing for 24 hr, 48 hr, adding MTT; and 4 hr later, dissolving the cells with DMSO. The blue MTT formazan is soluble in the solution. The absorption of the solution at 570 nm is detected. With the absorption at 570 nm without adding hexa-lactoside as 100% of cell viability, the experimental groups with hexa-lactoside added are compared with the normal group without adding hexa-lactoside, to get the cell viability of the experimental groups. FIG. 10 is a comparison of cell viability of hexa-lactoside in normal rat cell (Clone 9), and FIG. 11 is a comparison of cell viability of hexa-lactoside in normal mouse cell (FL83B), in which the concentration used presently is 0.01 μM.

Data set [2] relates to normal mouse cells (FL83B). Kind of data set: MTT cell toxicity test, FL83B. Type of data set: cell-based. Conditions: concentration 10^3 times of 0.01 μM, 24 hr, 48 hr. The protocol: as §1
(Formazan colour is commonly taken as a measure of viable cells.)

In data set [3] the target is T1, ASGPR (Mus musculus, UniProt P24721+P34927).
T1 construct: host or cells: murine hepatocytes (purchased, plated in 24-well plates)
T1 sequence (P34927 1-284): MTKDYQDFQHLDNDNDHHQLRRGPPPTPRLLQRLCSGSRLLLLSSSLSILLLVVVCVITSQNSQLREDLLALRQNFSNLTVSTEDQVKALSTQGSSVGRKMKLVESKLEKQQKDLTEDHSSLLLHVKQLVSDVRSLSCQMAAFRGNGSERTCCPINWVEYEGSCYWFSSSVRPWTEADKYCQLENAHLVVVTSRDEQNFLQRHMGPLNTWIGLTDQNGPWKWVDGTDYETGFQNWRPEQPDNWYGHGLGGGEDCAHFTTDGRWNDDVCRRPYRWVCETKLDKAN
T1 sequence (P24721 1-301): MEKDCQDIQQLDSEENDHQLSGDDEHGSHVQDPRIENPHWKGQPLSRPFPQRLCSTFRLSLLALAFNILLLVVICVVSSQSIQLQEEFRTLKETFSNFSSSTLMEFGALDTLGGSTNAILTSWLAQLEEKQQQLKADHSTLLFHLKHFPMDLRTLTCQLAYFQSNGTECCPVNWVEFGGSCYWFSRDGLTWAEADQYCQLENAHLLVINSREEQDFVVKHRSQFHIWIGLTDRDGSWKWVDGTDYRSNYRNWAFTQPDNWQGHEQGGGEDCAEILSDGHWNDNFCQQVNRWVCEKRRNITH
Nature of the data set: Competition with Eu-ASOR for binding to murine hepatocyte (time-resolved fluorescence). The protocol: The murine hepatocyte (from Lonza Biotechnology Company, Maryland) is plated in a 24-well plate in advance, and the reaction occurs in each well, into which (i) Eu-ASOR 10 nM (ii) hepatocyte basic medium with 5 mM calcium chloride, and (iii) five different concentrations of saccharide chain peptide of 1 uM-0.8 nM are added. After culturing with shaking for 1 hr, the substance that has not been bound to hepatocyte is removed by washing with the hepatocyte basic medium containing calcium chloride.
Time-resolved fluorescence spectroscopy is preformed, that is, an enhancement solution (15 uM β-naphthoyl trifluoroacetone, 50 uM tri-n-octyl-phosphine oxide, 0.1% triton X-100 in 0.1M acetic acid, titrated with potassium hydrogen phthalate to pH 3.2) is added. The enhancement solution reacts with Eu^3+ to form a Eu chelate, which can emit a light of 615 nm when being excited at 340 nm. With the logarithm of the concentration of saccharide chain peptide as X axis, the emitted fluorescence value as Y axis, the fluorescence value without adding glycopeptide being set as 100%, the IC50 of each saccharide chain peptide can be calculated accordingly.

On to `NCCCCCC(=O)N[C@@H](CC(=O)NCCCC[C@@H](C(=O)NCCCCCCOC1O[C@H](CO)[C@@H](O[C@@H]2O[C@H](CO)[C@H](O)[C@H](O)[C@H]2O)[C@H](O)[C@H]1O)N(CC(=O)NCCCCCCOC1O[C@H](CO)[C@@H](O[C@@H]2O[C@H](CO)[C@H](O)[C@H](O)[C@H]2O)[C@H](O)[C@H]1O)CC(=O)NCCCCCCOC1O[C@H](CO)[C@@H](O[C@@H]2O[C@H](CO)[C@H](O)[C@H](O)[C@H]2O)[C@H](O)[C@H]1O)C(=O)NCCCC[C@@H](C(=O)NCCCCCCOC1O[C@H](CO)[C@@H](O[C@@H]2O[C@H](CO)[C@H](O)[C@H](O)[C@H]2O)[C@H](O)[C@H]1O)N(CC(=O)NCCCCCCOC1O[C@H](CO)[C@@H](O[C@@H]2O[C@H](CO)[C@H](O)[C@H](O)[C@H]2O)[C@H](O)[C@H]1O)CC(=O)NCCCCCCOC1O[C@H](CO)[C@@H](O[C@@H]2O[C@H](CO)[C@H](O)[C@H](O)[C@H]2O)[C@H](O)[C@H]1O` (stereo partly shown) [AHA-Asp[DCM-Lys(ahLac)3]2, AHA-Asp[DCM-Lys(ah-Lac)3]2], for which the “cell viability (MTT)” value in data set [1] and in data set [2] was 100% each time.

Turning to `CC(=O)N[C@H]1[C@H](OCCCCCCNC(=O)CNC(=O)CN(CC(=O)NCC(=O)NCCCCCCO[C@@H]2O[C@H](CO)[C@H](O)[C@H](O)[C@H]2NC(C)=O)[C@@H](CCCCN)C(=O)NCC(=O)NCCCCCCO[C@@H]2O[C@H](CO)[C@H](O)[C@H](O)[C@H]2NC(C)=O)O[C@H](CO)[C@H](O)[C@@H]1O` [DCM-Lys(GahGalNAc)3, DCM-Lys(Gah-GalNAc)3], the “binding to ASGPR relative to YEE or YDD” value in data set [3] (compared with YEE or YDD) amounted to 10 times.

By IC50 is commonly meant the concentration that gives 50% inhibition. A high value points to weaker potency in that assay. In turn, `CC(=O)N[C@H]1[C@H](OCCCCCCNC(=O)CNC(=O)C[C@H](NC(=O)[C@H](CC(=O)NCC(=O)NCCCCCCO[C@@H]2O[C@H](CO)[C@H](O)[C@H](O)[C@H]2NC(C)=O)NC(=O)[C@@H](N)Cc2ccc(O)cc2)C(=O)NCC(=O)NCCCCCCO[C@@H]2O[C@H](CO)[C@H](O)[C@H](O)[C@H]2NC(C)=O)O[C@H](CO)[C@H](O)[C@@H]1O` [YDD(GahGalNAc)3, reference compound] registered an IC50 in data set [3] of 10 nM.
